Laboratory results taken from US6569902B2, “Nitrone inhibition of cancer development” (Oklahoma Medical Research Foundation, priority 2000, dated 2003).
Where two headings read alike, the source gives them in different places.

How the values were obtained:
[1] = system: GST-P-positive lesions in livers of male Wistar rats fed the CDAA diet; test: Example 2: numbers and sizes of GST-P-positive liver lesions, CDAA diet for 16 weeks; assay type: in vivo, rat; conditions: high dose 0.090% in CDAA diet
Procedure: Animals. A total of 110 male Wistar rats were obtained at 5 weeks of age from Charles River Japan, Inc., Atsugi, Kanagawa, Japan. Experimentation began after a 1-week acclimation on a basal diet (CE-2 diet, Clea Japan, Meguro, Tokyo, Japan). Rats were housed 5 each in plastic cages with white flake bedding (Kansai Animal Corp., City of Kyoto, Kyoto, Japan) in a standard atmosphere (temperature, 25±3° C.; relative humidity, 55±8%; ventilation, 10-15/hour; and a 12-hour dark/light cycle). Free access to food and tap water was allowed throughout the acclimation and experimental periods.
Diets and chemicals. The CDAA diet and its control, a choline-supplemented, L-amino acid-defined (CSAA) diet (Nakae et al. 1992; and Nakae et al. 1990) were obtained from Dyets, Inc., Bethlehem, Pa. […] 2-Sulfoxy-PBN (2-SPBN) was purchased from Aldrich Chemical Co. (Milwaukee, Wis.).
Animal experiment. After acclimation, rats were divided equally into 22 groups consisting of 5 animals each. Animals in group 1 received the CDAA diet alone. […] Groups 5-7, 8-10, 11-13 and 14-16 received the CDAA diet containing the low, middle, and high doses of 4-OHPBN, 3-OHPBN, 2-OHPBN and 2-SPBN, respectively. Group 17 received the CSAA diet alone. […] All animals were sacrificed by exsanguination under light ether anesthesia 16 weeks after commencement, and the livers excised. Slices 5-mm-thick were taken from the left lateral, median and right lateral lobes of the livers, fixed in 10% neutrally-buffered formalin for 24 hours and then embedded in paraffin. Five serial 4-μm-thick sections were prepared from each fixed liver slice and used for histological and immunohistochemical assessment as described below. The remaining portions of the livers were immediately frozen under liquid nitrogen and stored at −80° C. until use.
Histological and immunohistochemical assessments. Histological assessment was performed using sections routinely stained with hematoxylin/eosin and Masson's trichrome procedures. Gradation of fibrosis was quantitatively evaluated in groups 1, 4, 7, 10, 13, 16 and 17 by calculating the percent area occupied by collagen fiber stained blue by Masson's trichrome method using an IPAP image analyzing system (Sumika Technoservice Corp., City of Osaka, Osaka, Japan). GST-P-positive lesions were visualized immunohistochemically. Lesions consisting of more than 6 cells were quantified using the IPAP system as described elsewhere (Kishida et al. 2000). The amount of apoptosis and the cellular proliferative activity were determined in groups 1, 4, 7, 10, 13, 16 and 17, using the double staining techniques by combination of the GST-P immunohistochemistry as above with the in situ terminal deoxynucleotidyl transferase-mediated dUTP-biotin nick end-labeling method (Gold et al. 1994) and the enhanced polymer one-step staining method for proliferating cell nuclear antigen (Tsutsumi et al. 1995), respectively. Numbers of apoptotic and proliferating hepatocytes among the 1000-5000 hepatocytes in GST-P-positive lesions and 5000 hepatocytes in surrounding tissue were counted under light microscopy to obtain percentages that are hereafter referred as apoptotic and proliferative indices, respectively.
Statistics. Inter-group differences in quantitative data for multiple groups were recognized to be significant, when p values smaller than 0.05 were obtained by the Dunnett multiple comparison test employed after one-way analysis of variance to determine the variation among the group means followed by the Bartlett's test to determine the homogeniety of variance.

[2] = system: rats fed the CDAA diet; conditions: cited from earlier work; for size of neoplastic nodules: 12 weeks, CDAA only 1.92; for nodule number: CDAA only 190
[3] = system: rat liver microsome peroxidation; conditions: read-out: IC50, inhibition of rat liver microsome peroxidation; cited from earlier work
[4] = cited from earlier work
[5] = system: male Wistar rats fed the CDAA diet; test: Example 1 main study: hepatocarcinogenesis (HCA, HCC, fibrosis) in rats fed the CDAA diet for 70 weeks; assay type: in vivo, rat
Description: Animals, diets and chemical. The protocols were approved prior to the experiments by the Animal Experimentation committee at Nara Medical University according to the Guidelines on Animal Experiments in accordance with Japanese Government Animal Protection and Management Law Number 105 and Japanese Government Notification on Feeding and Safekeeping of Animals Number 6. Male Wistar rats, 6 weeks old, were purchased from JapanSLC, Inc., Hamamatsu, Shizuoka, Japan. Rats were housed 5 each to a plastic cage with white flake bedding (Kansai Animal Corp., City of Kyoto, Kyoto, Japan) in an air-conditioned room (25±3° C. temperature, 55 ±8% relative humidity, 10-12/h ventilation and 12-h dark/light cycle). Rats were used for the experimentation after a 1-week acclimation on a basal diet (CE-1, Clea Japan, Meguro, Tokyo, Japan) and allowed free access to food and tap water throughout the acclimation and experimental periods. Body weight, food consumption and water intake were monitored weekly. The CDAA diet and a control CSAA diet were obtained from Dyets Inc., Bethlehem, PA.
Main study. A total of 60 rats were equally divided into 6 groups. Group 1 received the CDAA diet for 70 weeks. […] The time-point of 26 weeks after the commencement, when treatments were changed in groups 3 and 4, was decided according to the results of the pilot study (see the Results and Discussion section below). All surviving rats were sacrificed 70 weeks after the commencement, and the livers were taken. Two serial 4-μm-thick, 10%-neutrally-buffered-folmalin-fixed 9 for 24 h), paraffin-embedded liver specimens were prepared and stained routine H&E and Masson's trichrome procedures. The H&E-stained liver specimens were histologically examined according to the aforementioned criteria (Maronpot et al. 1986), and the incidences of HCA and HCC were determined. Grade of fibrosis were evaluated by analyzing percent area occupied by collagen fiber in the Masson's trichrome-stained liver specimens using an IPAP image analyzing system (Sumika Technoservice, Corp., City of Osaka, Osaka, Japan).
Statistical analyses. Statistical analyses were carried out using an InStat software (GraphPad Software, Inc., San Diego, Cali.). Fisher's exact test was used to assess statistical significance of inter-group differences of the lesion incidences. Student-Newrnan-Keuls multiple comparison test was used to assess statistical significance of inter-group differences of means after one-way ANOVA to determine variations among group means, followed by Bartlett's test to determine homogeneity of variance.

[6] = group 2: CDAA diet with PBN 0.065% in drinking water for 70 weeks, CDAA alone 57.1%
[7] = group 3: CDAA with PBN for first 26 weeks, then CDAA alone 44 weeks
[8] = group 4: CDAA alone 26 weeks, then CDAA with PBN for last 44 weeks
[9] = group 6: CSAA control diet with PBN 70 weeks (stated for groups 5 or 6)

CC(C)(C)[N+]([O-])=Cc1ccccc1 [PBN, phenyl N-tert-butyl nitrone]
number of GST-P-positive lesions, % of the group 1 value [1]: 52% | sizes of GST-P-positive lesions, % of the group 1 value [1]: 19% | size of neoplastic nodules ([2]; CDAA plus PBN 6 mg/kg-day): 0.33 mm^3 | size of neoplastic nodules ([2]; CDAA plus PBN 30 mg/kg-day): 0.17 mm^3 | size of neoplastic nodules ([2]; CDAA plus PBN 60 mg/kg-day): 0.10 mm^3 | nodule number ([2]; PBN 6 mg/kg-day): 170 per mm^3 | nodule number ([2]; PBN 30 mg/kg-day): 149 per mm^3 | nodule number ([2]; PBN 60 mg/kg-day): 142 per mm^3 | reduction of the amount of PGE2 in the CD-livers ([2]; highest dose): about 50% | decrease of nodule size ([2]; highest level of PBN): 95% | 8-OHdG content (marker of DNA oxidation) in the CD-livers ([2]; increasing concentrations of PBN): reduced | decrease of nodule size ([2]; lowest level of PBN (6 mg/kg)): 83% | decrease of nodule number ([2]; lowest level of PBN): 11% | effect on COX-II expression ([2]; mRNA or protein level): no effect | connective tissue proliferation ([2]; rat, in vivo): significantly reduced | IC50 [3]: 5 mM | half-life ([4]; in rats): about 132 minutes | tissue distribution ([4]; rat, in vivo): readily and rapidly distributed almost equally to all tissues | carcinogenicity of PBN itself ([5]; 70-week study, PBN in drinking water): not carcinogenic itself | HCA incidence [5, 6]: 25.0% | HCC incidence [5, 6]: 25.0% | grade of fibrosis, percent of liver specimen occupied by fiber ([5]; group 2: PBN 70 weeks, group 1 (CDAA alone) 13.32%): 9.95% | HCA incidence [5, 7]: 28.6% | HCC incidence [5, 7]: 0% | grade of fibrosis, percent of liver specimen occupied by fiber ([5]; group 3: PBN first 26 weeks, group 1 13.32%): 8.71% | HCA incidence [5, 8]: 62.5% | HCC incidence [5, 8]: 0% | grade of fibrosis, percent of liver specimen occupied by fiber ([5]; group 4: PBN last 44 weeks, group 1 13.32%): 12.86% | grade of fibrosis ([5]; group 6: CSAA control diet with PBN 70 weeks (one value stated for groups 5 or 6)): 1.61% | HCA incidence [5, 9]: 0% | HCC incidence [5, 9]: 0%
